Experimental data as given in PMC11237694, “Novel pentafluorosulfanyl-containing triclocarban analogs selectively kill Gram-positive bacteria” (Microbiology Spectrum, 2024).
In brackets after ≈: the same amount, converted by molar mass. Entries after “also recorded” stand apart in the source; their conditions may differ. Read-outs that look alike come from different tables or passages of the source.

What was measured:
[1] = Eukaryotic cell toxicity, MTS assay (CC50); format: cell-based; settings: African green monkey, Vero cells, mean of 2 or 3 determinations, read-out: Vero (CC50) in vitro cytotoxicity
Protocol: (§1) Five eukaryotic cell lines were used to determine the cytotoxicity of the compounds: human embryonic lung (HEL) fibroblast cells, human cervixcarinoma-derived HeLa cells, human T-cell leukemia-derived MT4 cells, MDCK cells, and African Green monkey kidney-derived VERO cells. Semi-confluent cell cultures in 96-well plates were exposed to serial dilutions of the compounds or to medium (= no compound control), then incubated at 37°C. Four days later, the cells were inspected by microscopy to determine the MCC, that is, compound concentration that causes a microscopically detectable alteration of normal cell morphology. Next, the MTS cell viability reagent (CellTiter 96 AQueous MTS Reagent from Promega) was added. After 4 hours of incubation at 37°C, OD at 490 nm was recorded in a microplate reader.

[2] = system: MRSA strain MW2; experiment: Intravenous MRSA infection model in mice, CFU enumeration in organs; format: in vivo; settings: single i.p. injection 100 µl of 5 mM, 1 hour before or after i.v. infection with 5 × 10^7 CFU MW2; 24 hours
Protocol: Mice were infected systemically with the community-associated MRSA strain MW2 at an infectious dose of 5 × 10^7 colony-forming units (CFUs) as described ([26]). Treatment groups were injected intraperitoneally with the compound of interest 1 hour before or after infection, with a saline-injected control group. After 24 hours of infection, mice were sacrificed, and blood, peritoneal fluid, spleen, liver, kidney (left), heart, and lungs were harvested for CFU enumeration to determine the bacterial burden in these organs. […] Although disappointing, the lack of promising results in the single-dose treatments may have a variety of reasons, including rapid metabolism and excretion of the compounds by the liver, or the acknowledged intracellular aspect of S. aureus in its infectious cycle ([27]). […] Additionally, investigating the possibility of topical application for these components presents another viable option.
Animal experiments were performed with 6- to 10-week/old adult male mice. Mice were kept in a pathogen-free facility under standardized conditions: temperature of 21–22°C, illumination of 12-hour light–12-hour dark, and access to tap water and food. Experimental animal protocols were approved by the University of Calgary Animal Care Committee and followed the Canadian Council for Animal Care Guidelines.
MW2 Staphylococcus aureus was grown on brain heart infusion (BHI) agar plates (BD biosciences). A single colony was grown overnight in BHI medium (BD biosciences) at 37°C while shaking. Subcultures of […] of the overnight (ON) culture were grown in 3 mL of the same culture medium for 2 hours at 37°C while shaking to reach the exponential growth phase. Bacteria were brought to a concentration of OD660 1.0 in saline. […]
For assessing bacterial by CFU enumeration, the mice were anesthetized with isoflurane (Fresenius Kabi) and washed with 70% ethanol to collect blood and sacrificed to further collect liver, spleen, kidney (left), heart, and lungs. […] Cultures were counted, and CFUs were calculated taking the weight of the organ into account.

[3] = system: S. epidermidis ATCC 12228; experiment: Planktonic susceptibility (MIC/MBC), 96-well broth microdilution; format: cell-based, Staphylococcus epidermidis; settings: for MBC / MIC: Staphylococcus epidermidis; for MBC: ATCC12228; for MIC: ATCC12228, planktonic, overnight 37°C in MHB
Protocol: (§2) All bacterial strains subjected to testing had been stored at −70°C prior to the experiment. The experiment commenced by streaking small amounts of the frozen bacterial samples onto Muller-Hinton agar (MHA) culture medium (BD Bacto, Oxoid, Basingstoke, UK Cat# X296B) and allowing for overnight incubation. Bacteria were re-cultured on MHA plates as required to confirm colony morphology and lack of contamination. Strains tested were P. aeruginosa ATCC 27853, E. coli ATCC 25922, Staphylococcus aureus ATCC 25923, MRSA ATCC 33591, S. epidermidis ATCC 12228, Klebsiella pneumoniae ATCC, P. mirabilis ATCC 35659, and 10 clinical isolates of MRSA from Foothills Hospital, Calgary, Canada. To prepare for susceptibility testing, a protocol modified from Lemire et al was used ([28]). MHB was swab-inoculated from MHA colonies and shake-incubated until turbid. Dilution of the broth with 0.9% saline was performed as necessary to match a 1.0 McFarland standard.
(§3) MIC and MBC assessments were conducted on all bacterial strains using 96-well microtiter plates. To prepare the wells for bacteria, serial dilutions of the antibacterial agents were carried out along the rows of two microtiter plates. The antibacterials were 2-fold diluted with Mueller-Hinton broth (MHB) in each column, reaching a volume of 75 µL. The 1.0 McFarland standard was diluted 15-fold in MHB, and 75 µL of inoculum was added to the wells treated with antibacterials, resulting in a total volume of 150 µL. The microtiter plates were covered and then shake-incubated overnight at 150 rpm and 37°C. MIC was determined based on visible bacterial growth. In cases of antibacterial opacity or ambiguous results, streaking of well cultures on MHA, overnight incubation, and subsequent comparison with controls were performed. MBC was determined by transferring 3 µL of culture from all MIC microtiter plate wells to 147 µL of Mueller-Hinton broth in fresh plates. These plates were shake-incubated overnight at 150 rpm and 37°C, and bacterial growth was visually inspected.

[4] = system: Klebsiella pneumoniae ATCC; experiment: as above; format: cell-based; settings: K. pneumonia; for MIC: planktonic, overnight 37°C in MHB
Protocol: as §2, §3

[5] = system: P. mirabilis ATCC 35659; experiment: as above; format: cell-based; settings: Proteus mirabilis; for MBC: ATCC35659; for MIC: ATCC35659, planktonic, overnight 37°C in MHB
Protocol: as §2, §3

[6] = system: Staphylococcus aureus ATCC 25923; experiment: as above; format: cell-based; settings: S. aureus; for MBC / MIC: Staphylococcus aureus, ATCC25923; for MIC: planktonic, overnight 37°C in MHB
Protocol: as §2, §3

[7] = Eukaryotic cell toxicity, MTS assay (CC50); format: cell-based, canine; settings: dog, MDCK cells, MTS assay, 4 days; mean of 2 or 3 determinations; read-out: MDCK (CC50) in vitro cytotoxicity
Protocol: as §1

| SMILES | CC50 at 4 days [1] [µM] | bacterial burden (CFU) in blood, spleen, liver, kidney, heart, lungs [2] | antibacterial efficacy (in words) [3] | MBC [3] [µM] | MIC [3] [µM] | MBC [4] [µM] | MIC [4] [µM] | MBC [5] [µM] | MIC [5] [µM] | antibacterial efficacy (in words) [6] | MBC [6] [µM] | MIC [6] [µM] | CC50 at 4 days [7] [µM] |
| --- | --- | --- | --- | --- | --- | --- | --- | --- | --- | --- | --- | --- | --- |
| O=C(Nc1ccc(S(F)(F)(F)(F)F)cc1)Nc1ccc(Cl)c(Cl)c1 [EBP-59] | > 4 | failed to reduce bacterial counts; also recorded: not significant | effective | 10 (≈ 4.07 µg/mL) | 4 (≈ 1.63 µg/mL) | > 5000 | > 5000 | 2 (≈ 0.814 µg/mL) | 2 (≈ 0.814 µg/mL) | effective | 6.1 (≈ 2.48 µg/mL) | < 0.3 | ≥ 100 |
| O=C(Nc1ccc(Cl)cc1)Nc1cccc(S(F)(F)(F)(F)F)c1 [EBP-62, 1-(4-chlorophenyl)-3-(3-(pentafluoro-λ^6-sulfanyl)phenyl)urea] | > 4 | failed to reduce bacterial counts; also recorded: not significant | effective | 100 (≈ 37.3 µg/mL) | 20 (≈ 7.45 µg/mL) | > 5000 | > 5000 | > 5000 | > 5000 | effective | 300 (≈ 112 µg/mL) | 0.3 (≈ 0.112 µg/mL) | 100 |
| O=C(Nc1ccc(Cl)cc1)Nc1ccc(S(F)(F)(F)(F)F)cc1 [EPB-61, 1-(4-Chlorophenyl)-3-(4-(pentafluoro-λ^6-sulfanyl)phenyl)urea] | > 4 | failed to reduce bacterial counts; also recorded: not significant | effective | 40 (≈ 14.9 µg/mL) | 1 (≈ 0.373 µg/mL) | > 5000 | > 5000 | > 5000 | > 5000 | effective | 95 (≈ 35.4 µg/mL) | 9.5 (≈ 3.54 µg/mL) | ≥ 100 |
